Like-named read-outs stand apart in the source and are kept apart here.
Target: T1, ERα (Homo sapiens, UniProt P03372)
T1 sequence (P03372 1-595): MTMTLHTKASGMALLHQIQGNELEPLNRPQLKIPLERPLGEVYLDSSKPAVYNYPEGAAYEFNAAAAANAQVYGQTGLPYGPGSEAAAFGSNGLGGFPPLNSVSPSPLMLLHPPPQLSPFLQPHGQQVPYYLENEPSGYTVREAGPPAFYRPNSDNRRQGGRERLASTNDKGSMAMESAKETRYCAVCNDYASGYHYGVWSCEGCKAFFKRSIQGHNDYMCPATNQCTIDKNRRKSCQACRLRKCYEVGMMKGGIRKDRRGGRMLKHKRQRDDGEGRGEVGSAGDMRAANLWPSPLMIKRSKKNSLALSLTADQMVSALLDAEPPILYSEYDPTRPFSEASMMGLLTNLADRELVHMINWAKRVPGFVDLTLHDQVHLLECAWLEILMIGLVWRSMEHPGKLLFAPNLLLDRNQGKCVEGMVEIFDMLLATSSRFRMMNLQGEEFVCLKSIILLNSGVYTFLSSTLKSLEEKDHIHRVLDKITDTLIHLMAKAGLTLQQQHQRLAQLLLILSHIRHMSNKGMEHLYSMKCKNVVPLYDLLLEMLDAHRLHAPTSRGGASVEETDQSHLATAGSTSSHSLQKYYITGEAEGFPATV
Assay: ERE luciferase reporter gene assay in T47D-KBluc cells (target engagement)
Assay type: cell-based
Set-up: T47D human breast cancer cells stably transfected with estrogen responsive element/promoter/luciferase reporter gene; host or cells: T47D-KBluc cells
Settings: 10% FBS, 24 hours
How it was run: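 T47D-KBluc breast cancer cells, which carry a stable ERE-luciferase reporter, were grown in RPMI with 10% FBS (about 10 pM estrogen) and exposed to PROTACs for 24 h. The 12-point, 3-fold series ran from 300 nM to 2 pM. Luciferase was read after lysis, and IC50 was fitted from duplicates.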

[1] = Table 2 VHL centric PROTACs, read-out: IC50
[2] = Table 3 cereblon centric PROTACs, read-out: ER-α Luciferase IC50
[3] = Table 1 cereblon centric PROTACs, read-out: ER-α Luciferase IC50

| Structure (SMILES) | IC50 [3] | further results |
| --- | --- | --- |
| Cc1ncsc1-c1ccc(CNC(=O)[C@@H]2C[C@@H](O)CN2C(=O)[C@@H](NC(=O)CCCN2CC3CN(CCOc4ccc(Oc5c(-c6ccc(F)cc6)sc6cc(O)ccc56)cc4)CC3C2)C(C)(C)C)cc1 (stereo partly shown) [Compound 122] | – | IC50 [1]: > 100 nM |
| O=C1CCC(N2Cc3c(ccc(N4CCN(C5CCN(CCOc6ccc(Oc7c(-c8ccc(Br)cc8)sc8cc(O)ccc78)cc6)CC5)CC4)c3F)C2=O)C(=O)N1 (stereo not shown) [Compound 195] | – | IC50 [2]: 2.9 nM |
| C[C@@H](COc1ccc(Oc2c(-c3ccc(Br)cc3)sc3cc(O)ccc23)cc1)N1CCN(CCOc2cccc3c2CN(C2CCC(=O)NC2=O)C3=O)CC1 (stereo partly shown) [Compound 15] | 1.7 nM | – |
| O=C1CCC(N2Cc3cc(OCCN4CCN(CCOc5ccc(Oc6c(-c7ccc(Br)cc7)sc7cc(O)ccc67)cc5)CC4)ccc3C2=O)C(=O)N1 (stereo not shown) [Compound 30] | 1.3 nM | – |
| C[C@H](COc1ccc(Oc2c(-c3ccc(Br)cc3)sc3cc(O)ccc23)cc1)N1CCN(CCOc2cccc3c2CN(C2CCC(=O)NC2=O)C3=O)CC1 (stereo partly shown) [Compound 13] | 1.3 nM | – |
| O=C1CCC(N2Cc3cc(N4CCN(CC5CCN(CCOc6ccc(Oc7c(-c8ccc(C(F)(F)F)cc8)sc8cc(O)ccc78)cc6)CC5)CC4)ccc3C2=O)C(=O)N1 (stereo not shown) [Compound 200] | – | IC50 [2]: 8.4 nM |
| O=C1CCC(N2Cc3cc(N4CCN(CCCOc5ccc(Oc6c(-c7ccc(OC(F)(F)F)cc7)sc7cc(O)ccc67)cc5)CC4)c(F)cc3C2=O)C(=O)N1 (stereo not shown) [Compound 219] | – | IC50 [2]: 19.1 nM |
| O=C1CCC(N2C(=O)c3ccc(N4CCC(N5CC(Oc6ccc(Oc7c(-c8ccc(Br)cc8)sc8cc(O)ccc78)cc6)C5)CC4)cc3C2=O)C(=O)N1 (stereo not shown) [Compound 212] | – | IC50 [2]: 15 nM |
| Cc1ncsc1-c1ccc([C@H](C)NC(=O)[C@@H]2C[C@@H](O)CN2C(=O)[C@@H](NC(=O)COCCOCCCOc2ccc(Oc3c(-c4ccc(F)cc4)sc4cc(O)ccc34)cc2)C(C)(C)C)cc1 [Compound 113, (2S,4R)-1-((S)-2-(2-(2-(3-(4-(2-(4-fluorophenyl)-6-hydroxybenzo[b]thiophen-3-yloxy)phenoxy)propoxy)ethoxy)acetamido)-3,3-dimethylbutanoyl)-4-hydroxy-N—((S)-1-(4-(4-methylthiazol-5-yl)phenyl)ethyl)pyrrolidine-2-carboxamide] | – | IC50 [1]: 23.7 nM |
| O=C1CCC(N2C(=O)c3cccc(NCCN4CCN(CCOc5ccc(Oc6c(-c7ccc(Br)cc7)sc7cc(O)ccc67)cc5)CC4)c3C2=O)C(=O)N1 (stereo not shown) [Compound 6] | 1.3 nM | – |
| O=C1CCC(N2Cc3cc(N4CCN(C5CC6(C5)CN(CCOc5ccc(Oc7c(-c8ccc(C(F)(F)F)cc8)sc8cc(O)ccc78)cc5)C6)CC4)ccc3C2=O)C(=O)N1 (stereo not shown) [Compound 198] | – | IC50 [2]: 10.2 nM |
| O=C1CCC(N2Cc3cc(N4CCC(N5CC(Oc6ccc(Oc7c(-c8ccc(Br)cc8)sc8cc(O)ccc78)cc6)C5)CC4)ccc3C2=O)C(=O)N1 (stereo not shown) [Compound 233] | – | IC50 [2]: 2.1 nM |
| O=C1CCC(N2Cc3cc(CCCOC4CCN(CCOc5ccc(Oc6c(-c7ccc(Br)cc7)sc7cc(O)ccc67)cc5)CC4)ccc3C2=O)C(=O)N1 (stereo not shown) [Compound 73] | 1.3 nM | – |
| O=C1CCC(N2C(=O)c3ccc(NCCC4CCN(CCOc5ccc(Oc6c(-c7ccc(Br)cc7)sc7cc(O)ccc67)cc5)CC4)cc3C2=O)C(=O)N1 (stereo not shown) [Compound 62] | 8.5 nM | – |
| C[C@H](NC(=O)[C@@H]1C[C@@H](O)CN1C(=O)[C@@H](NC(=O)COCCOCCN1CCC(c2ccc(Oc3c(-c4ccc(F)cc4)sc4cc(O)ccc34)cc2)CC1)C(C)(C)C)c1ccc(Cl)cc1 [Compound 148] | – | IC50 [1]: > 100 nM |
| Cc1ncsc1-c1ccc([C@H](C)NC(=O)[C@@H]2C[C@@H](O)CN2C(=O)[C@@H](NC(=O)COCCCOCCCOc2ccc(Oc3c(-c4ccc(F)cc4)sc4cc(O)ccc34)cc2)C(C)(C)C)cc1 [Compound 112, (2S,4R)-1-((S)-2-(2-(3-(3-(4-(2-(4-fluorophenyl)-6-hydroxybenzo[b]thiophen-3-yloxy)phenoxy)propoxy)propoxy)acetamido)-3,3-dimethylbutanoyl)-4-hydroxy-N—((S)-1-(4-(4-methylthiazol-5-yl)phenyl)ethyl)pyrrolidine-2-carboxamide] | – | IC50 [1]: 15.8 nM |
| O=C1CCC(N2Cc3cc(CCCCC(=O)N4CCN(CCOc5ccc(Oc6c(-c7ccc(Br)cc7)sc7cc(O)ccc67)cc5)CC4)ccc3C2=O)C(=O)N1 (stereo not shown) [Compound 47] | 0.86 nM | – |

| Structure (SMILES) | IC50 [3] | further results |
| --- | --- | --- |
| O=C1CCC(N2Cc3cc(CCC(=O)N4CCN(CCOc5ccc(Oc6c(-c7ccc(Br)cc7)sc7cc(O)ccc67)cc5)CC4)ccc3C2=O)C(=O)N1 (stereo not shown) [Compound 46] | 1.9 nM | – |
| O=C1CCC(N2C(=O)c3ccc(N4CCN(CCCOc5ccc(Oc6c(-c7ccc(Br)cc7)sc7cc(O)ccc67)cc5)CC4)cc3C2=O)C(=O)N1 (stereo not shown) [Compound 49] | 17.7 nM | – |
| O=C1CCC(N2Cc3c(NCCOCCOCCOc4ccc(Oc5c(-c6ccc(Br)cc6)sc6cc(O)ccc56)cc4)cccc3C2=O)C(=O)N1 (stereo not shown) [Compound 24] | 16.8 nM | – |
| O=C1CCC(N2Cc3c(NCCOCCOCCOCCOc4ccc(Oc5c(-c6ccc(Br)cc6)sc6cc(O)ccc56)cc4)cccc3C2=O)C(=O)N1 (stereo not shown) [Compound 22] | 41.4 nM | – |
| O=C1CCC(N2Cc3c(OCCOCCOCCOCCOc4ccc(Oc5c(-c6ccc(Br)cc6)sc6cc(O)ccc56)cc4)cccc3C2=O)C(=O)N1 (stereo not shown) [Compound 21] | 17.4 nM | – |
| Cc1nc2c(OCCN3CCN(CCOc4ccc(Oc5c(-c6ccc(Br)cc6)sc6cc(O)ccc56)cc4)CC3)cccc2c(=O)n1C1CCC(=O)NC1=O (stereo not shown) [Compound 16] | 8.8 nM | – |
| O=C1CCC(N2C(=O)c3ccc(N4CCN(CCCCOc5ccc(Oc6c(-c7ccc(Br)cc7)sc7cc(O)ccc67)cc5)CC4)cc3C2=O)C(=O)N1 (stereo not shown) [Compound 60] | 29.9 nM | – |
| O=C1CCC(N2Cc3cc(OCCCOCCCOc4ccc(Oc5c(-c6ccc(Br)cc6)sc6cc(O)ccc56)cc4)ccc3C2=O)C(=O)N1 (stereo not shown) [Compound 35] | 9.9 nM | – |
| O=C1CCC(N2C(=O)c3ccc(N4CCN(CCOc5ccc(Oc6c(-c7ccc(Br)cc7)sc7cc(O)ccc67)cc5)CC4)cc3C2=O)C(=O)N1 (stereo not shown) [Compound 56] | 10.6 nM | – |
| Cc1ncsc1-c1ccc(CNC(=O)[C@@H]2C[C@@H](O)CN2C(=O)[C@@H](NC(=O)CCCC(=O)N2CCN(CCOc3ccc(Oc4c(-c5ccc(F)cc5)sc5cc(O)ccc45)cc3)[C@@H](C)C2)C(C)(C)C)cc1 [Compound 124] | – | IC50 [1]: 2.2 nM |
| O=C1CCC(N2Cc3cc(OCCCOCCOc4ccc(Oc5c(-c6ccc(Br)cc6)sc6cc(O)ccc56)cc4)ccc3C2=O)C(=O)N1 (stereo not shown) [Compound 40] | 3.9 nM | – |
| O=C1CCC(N2Cc3cc(NCCCOCCCOCCCOc4ccc(Oc5c(-c6ccc(Br)cc6)sc6cc(O)ccc56)cc4)ccc3C2=O)C(=O)N1 (stereo not shown) [Compound 170] | – | IC50 [2]: 5.6 nM |
| O=C1CCC(N2Cc3cc(OCCCOCCCOCCCCOc4ccc(Oc5c(-c6ccc(Br)cc6)sc6cc(O)ccc56)cc4)ccc3C2=O)C(=O)N1 (stereo not shown) [Compound 48] | 8.3 nM | – |
| O=C1CCC(N2Cc3cc(C4CCN(C5CCN(CCOc6ccc(Oc7c(-c8ccc(Br)cc8)sc8cc(O)ccc78)cc6)CC5)CC4)ccc3C2=O)C(=O)N1 (stereo not shown) [Compound 196] | – | IC50 [2]: 8.6 nM |
| O=C1CCC(N2C(=O)c3ccc(NCCOCCOc4ccc(Oc5c(-c6ccc(Br)cc6)sc6cc(O)ccc56)cc4)cc3C2=O)C(=O)N1 (stereo not shown) [Compound 75] | 6.6 nM | – |
| O=C1CCC(N2C(=O)c3ccc(NCCCOCCCOCCCOc4ccc(Oc5c(-c6ccc(Br)cc6)sc6cc(O)ccc56)cc4)cc3C2=O)C(=O)N1 (stereo not shown) [Compound 84] | 30.9 nM | – |
| O=C1CCC(N2Cc3c(OCCN4CC5(CN(CCOc6ccc(Oc7c(-c8ccc(Br)cc8)sc8cc(O)ccc78)cc6)C5)C4)cccc3C2=O)C(=O)N1 (stereo not shown) [Compound 37] | 4.2 nM | – |
